Reference: PubChem BioAssay AID248 (DTP/NCI, 2004)
Where “and” joins values, the source holds several entries; their conditions need not be identical. Equal entries are not always repeated. Inconclusive results and toxic doses are left out. No stated cut-off is given here; in the data, active means T/C of 150% or more; inactive means T/C below 125%.

Tested on: L1210 leukemia ip in BDF1 mice, survival T/C
Experiment: NCI In Vivo Anticancer Drug Screen. Data for tumor model L1210 Leukemia (intraperitoneal) in B6D2F1 (BDF1) mice
Conditions: endpoint: mean survival time, higher = longer survival
Procedure, shortened: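 Ratio derived from survival: compound-dosed mice over vehicle-dosed mice, all bearing a transplantable tumor.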

[1] = dose: 100.0 mg/kg/injection, schedule: Q01DX009 (ip), vehicle: saline with Tween-80
[2] = dose: 100.0 mg/kg/injection, schedule: Q04DX003 (ip), vehicle: saline with Tween-80
[3] = dose: 200.0 mg/kg/injection, schedule: Q01DX009 (ip), vehicle: saline with Tween-80
[4] = dose: 200.0 mg/kg/injection, schedule: Q04DX003 (ip), vehicle: saline with Tween-80
[5] = dose: 400.0 mg/kg/injection, schedule: Q01DX009 (ip), vehicle: saline with Tween-80
[6] = dose: 400.0 mg/kg/injection, schedule: Q04DX003 (ip), vehicle: saline with Tween-80
[7] = dose: 6.25 mg/kg/injection, schedule: Q04DX003 (ip), vehicle: saline
[8] = dose: 12.5 mg/kg/injection, schedule: Q04DX003 (ip), vehicle: saline
[9] = dose: 25.0 mg/kg/injection, schedule: Q04DX003 (ip), vehicle: saline
[10] = dose: 50.0 mg/kg/injection, schedule: Q04DX003 (ip), vehicle: saline
[11] = dose: 12.5 mg/kg/injection, schedule: Q01DX009 (ip), vehicle: saline
[12] = dose: 25.0 mg/kg/injection, schedule: Q01DX009 (ip), vehicle: saline
[13] = dose: 100.0 mg/kg/injection, schedule: Q01DX009 (ip), vehicle: Klucel (hydroxypropylcellulose) (HPC)
[14] = dose: 200.0 mg/kg/injection, schedule: Q01DX009 (ip), vehicle: Klucel (hydroxypropylcellulose) (HPC)
[15] = dose: 400.0 mg/kg/injection, schedule: Q01DX009 (ip), vehicle: Klucel (hydroxypropylcellulose) (HPC)
[16] = dose: 100.0 mg/kg/injection, schedule: Q04DX003 (ip), vehicle: saline
[17] = dose: 100.0 mg/kg/injection, schedule: Q01DX009 (ip), vehicle: saline
[18] = dose: 100.0 mg/kg/injection, schedule: Q04DX002 (ip), vehicle: saline
[19] = dose: 200.0 mg/kg/injection, schedule: Q04DX002 (ip), vehicle: saline
[20] = dose: 400.0 mg/kg/injection, schedule: Q04DX002 (ip), vehicle: saline

Measured: T/C

Cc1sc2ccc(Cl)cc2[n+]1CCC(=O)O
inactive: [1] 101 % of control | [2] 111 % of control | [3] 96 % of control | [4] 108 % of control | [5] 97 % of control | [6] 95 % of control

CCCCCCCCCCCCCCCCCCOCCCCCCCCCCCC
inactive: dose: 100.0 mg/kg/injection, schedule: Q01DX001 (ip), vehicle: other 97 % of control | dose: 200.0 mg/kg/injection, schedule: Q01DX001 (ip), vehicle: other 92 % of control | dose: 400.0 mg/kg/injection, schedule: Q01DX001 (ip), vehicle: other 93 % of control

CCOC(=O)c1cccc2ccc[n+](C)c12
inactive: dose: 37.5 mg/kg/injection, schedule: Q04DX003 (ip), vehicle: saline 91 % of control | dose: 75.0 mg/kg/injection, schedule: Q01DX001 (ip), vehicle: saline 97 % of control | dose: 75.0 mg/kg/injection, schedule: Q04DX003 (ip), vehicle: saline 91 % of control | dose: 150.0 mg/kg/injection, schedule: Q01DX001 (ip), vehicle: saline 97 % of control | dose: 150.0 mg/kg/injection, schedule: Q04DX003 (ip), vehicle: saline 95 % of control

CCCCCSc1cccc(N)c1
inactive: dose: 100.0 mg/kg/injection, schedule: Q01DX001 (ip), vehicle: saline with Tween-80 112 % of control | dose: 200.0 mg/kg/injection, schedule: Q01DX001 (ip), vehicle: saline with Tween-80 102 % of control | dose: 400.0 mg/kg/injection, schedule: Q01DX001 (ip), vehicle: saline with Tween-80 97 % of control

C[C@]12CC[C@@H]3c4ccccc4CC[C@H]3[C@@H]1CC[C@@H]2O
inactive: dose: 62.5 mg/kg/injection, schedule: Q01DX015 (sc), vehicle: steriod suspending solution 97 % of control | dose: 125.0 mg/kg/injection, schedule: Q01DX015 (sc), vehicle: steriod suspending solution 101 % of control | dose: 250.0 mg/kg/injection, schedule: Q01DX015 (sc), vehicle: steriod suspending solution 100 % of control | dose: 500.0 mg/kg/injection, schedule: Q01DX015 (sc), vehicle: steriod suspending solution 100 % of control

O=C1C(Br)=C(N2CC2)C(=O)C(Br)=C1N1CC1
inactive: dose: 1.56 mg/kg/injection, schedule: Q04DX003 (ip), vehicle: saline 104 % of control | dose: 3.12 mg/kg/injection, schedule: Q04DX003 (ip), vehicle: saline 109 % of control | [7] 104 % of control | [8] 106 % of control | [9] 104 % of control | [10] 103 % of control

CC1(c2cccs2)NC(=O)NC1=O (stereo not given)
inactive: dose: 100.0 mg/kg/injection, schedule: Q01DX001 (ip), vehicle: carboxymethylcellulose (CMC) 95 % of control | [1] 102 % of control | [2] 105 % of control and 96 % of control | dose: 200.0 mg/kg/injection, schedule: Q01DX001 (ip), vehicle: carboxymethylcellulose (CMC) 101 % of control | [3] 110 % of control | [4] 109 % of control and 96 % of control | dose: 400.0 mg/kg/injection, schedule: Q01DX001 (ip), vehicle: carboxymethylcellulose (CMC) 97 % of control | [5] 109 % of control | [6] 107 % of control and 105 % of control

COC(=O)C/C=C/CC(=O)OC
inactive: [1] 95 % of control | [3] 90 % of control | [5] 88 % of control

CCC(C)C(C(=O)OCCC[N+]1(C)CCCCC1)c1ccccc1 (stereo not given)
inactive: [11] 96 % of control | [8] 96 % of control | [12] 100 % of control | [9] 96 % of control | dose: 50.0 mg/kg/injection, schedule: Q01DX009 (ip), vehicle: saline 94 % of control | [10] 94 % of control

O=c1cc(-c2ccccc2)nc(SCc2ccccc2Cl)[nH]1
inactive: dose: 25.0 mg/kg/injection, schedule: Q01DX Z (ip), vehicle: methylcellulose (MC) 94 % of control

Fc1ccc(CSC(=S)Nc2ccc(Cl)c(Cl)c2)cc1
inactive: dose: 75.0 mg/kg/injection, schedule: Q04DX003 (ip), vehicle: saline with Tween-80 102 % of control | dose: 150.0 mg/kg/injection, schedule: Q04DX003 (ip), vehicle: saline with Tween-80 106 % of control

C/C(=N/N(C)C)c1ccccc1O
inactive: [13] 103 % of control | [14] 106 % of control | [15] 92 % of control

O=C(O)C(Oc1ccccc1O)C(=O)O
inactive: [16] 95 % of control | dose: 200.0 mg/kg/injection, schedule: Q04DX003 (ip), vehicle: saline 93 % of control

CCN(CC)CC(=O)NCC(CCN1CCCCC1)c1cccc2ccccc12 (stereo not given)
inactive: [9] 98 % of control | [10] 111 % of control | [17] 105 % of control | [16] 111 % of control

NC(=O)C1CCC(=O)N1 (stereo not given)
inactive: [17] 93 % of control | [18] 104 % of control | dose: 200.0 mg/kg/injection, schedule: Q01DX009 (ip), vehicle: saline 101 % of control | [19] 98 % of control | dose: 400.0 mg/kg/injection, schedule: Q01DX009 (ip), vehicle: saline 93 % of control | [20] 91 % of control

O=C(O)C1CCC1C(=O)O (stereo not given)
inactive: [18] 90 % of control | [19] 90 % of control | [20] 87 % of control

CCCCc1ccc(Sc2cccc3c2C(=O)c2c(Sc4ccc(CCCC)cc4)cccc2C3=O)cc1
inactive: [1] 97 % of control | [2] 93 % of control | [3] 102 % of control | [4] 97 % of control | [5] 92 % of control | [6] 97 % of control

[CeH3]
inactive: dose: 100.0 mg/kg/injection, schedule: Q04DX003 (sc), vehicle: olive oil, sesame oil, peanut oil 98 % of control | dose: 200.0 mg/kg/injection, schedule: Q04DX003 (sc), vehicle: olive oil, sesame oil, peanut oil 108 % of control | dose: 400.0 mg/kg/injection, schedule: Q04DX003 (sc), vehicle: olive oil, sesame oil, peanut oil 91 % of control

CCN(CC)CCCOC(=O)C(c1ccccc1)C1CCCCC1 (stereo not given)
inactive: dose: 6.25 mg/kg/injection, schedule: Q01DX009 (ip), vehicle: saline 97 % of control | [7] 100 % of control | [11] 94 % of control | [8] 102 % of control | [12] 94 % of control | [9] 102 % of control

CCCCNC(=O)Nc1ccc(O)c(C(=O)O)c1
inactive: dose: 25.0 mg/kg/injection, schedule: Q01DX009 (ip), vehicle: Klucel (hydroxypropylcellulose) (HPC) 110 % of control | dose: 50.0 mg/kg/injection, schedule: Q01DX009 (ip), vehicle: Klucel (hydroxypropylcellulose) (HPC) 93 % of control | [13] 100 % of control

CC(C)OP(=O)(NC12CC3CC(CC(C3)C1)C2)OC(C)C
inactive: [13] 103 % of control | dose: 100.0 mg/kg/injection, schedule: Q04DX003 (ip), vehicle: Klucel (hydroxypropylcellulose) (HPC) 95 % of control | [14] 100 % of control | dose: 200.0 mg/kg/injection, schedule: Q04DX003 (ip), vehicle: Klucel (hydroxypropylcellulose) (HPC) 96 % of control | [15] 90 % of control | dose: 400.0 mg/kg/injection, schedule: Q04DX003 (ip), vehicle: Klucel (hydroxypropylcellulose) (HPC) 100 % of control
